# How the values were obtained:
# Format in all cases: in vivo, human
# [1] = system: native C3G patients; experiment: Phase 2 study CLNP023X2202, proteinuria and renal function; conditions: native C3G patients (N=16), final dose levels of 200 mg b.i.d.
# Procedure: (§1) The proposed iptacopan dose of 200 mg b.i.d. is considered appropriate based on data from the Phase 2 study, CLNP023X2202. […] Thus, the 200 mg b.i.d. dose of iptacopan appears to produce maximum changes in all of the complement biomarkers that have been evaluated to date in C3G patients.
# [2] = system: alternative complement pathway; experiment: Phase 2 study CLNP023X2202, complement biomarkers
# Procedure: as §1
# [3] = system: native kidney C3G patients; experiment: Phase 2 study CLNP023X2202, safety and tolerability
# Procedure: as §1
compound,measurement,setting,value
"CCO[C@H]1CCN(Cc2c(OC)cc(C)c3[nH]ccc23)[C@H](c2ccc(C(=O)O)cc2)C1 [iptacopan, 4-((2S,4S)-(4-ethoxy-1-((5-methoxy-7-methyl-1H-indol-4-yl)methyl)piperidin-2-yl))benzoic acid]","renal function (SCR, CrCl, eGFR)",[1],stabilization of renal function
same,reduction in UPCR from baseline to Week 12,[1]; two-sided p=0.0003,45%
same,"C3 levels, dose dependence",[2]; 16 native C3G patients,increased dose-dependently
same,"dose at which maximum decreases in plasma Bb, plasma sC5b-9 and urine sC5b-9 were obtained",[2]; 16 native C3G patients,100 mg b.i.d.
same,dose at which maximum decreases in the Wieslab assay and increases in C3 were observed,[2]; 16 native C3G patients,200 mg b.i.d.
same,"sC5b-9, Bb, the Wieslab assay and urine sC5b-9, dose dependence",[2]; 16 native C3G patients,decreased dose-dependently
same,"plasma Bb, plasma and urine sC5b-9",[2]; Cohort A,reduction
same,Wieslab activity,[2]; at 200 mg b.i.d,full inhibition
same,serum C3 levels,[2]; both cohorts,overall normalization
same,inhibition of alternative complement pathway,"[2]; both cohorts, upon iptacopan treatment","Dose-dependent, profound and sustained inhibition"
same,"changes in hematology, biochemistry, urinalysis, vital signs or ECG parameters",[3]; in vivo,no notable changes
same,discontinuations due to adverse events,[3]; in vivo,no definitive discontinuations due to adverse events
same,tolerability,[3]; in vivo,well tolerated without unexpected or new safety findings
same,deaths or serious adverse events during the treatment period,[3]; native kidney C3G patients,no deaths or serious adverse events were observed

# Source: US20260207577A1, “METHODS OF USING FACTOR B INHIBITORS” (priority 2023, published 2026)
